Test [1] deals with bacterial indicator strains. Put plainly: Split plate inhibitory activity of K12 in commercial powder Daily Defence Junior. The test is classed as cell-based. The note with it: raffinose 2.5% w/w, galactose 0.5% w/w, or combination. Here is the method:
Method: Formulations for testing were prepared as follows: • 1. Control: Commercial powder formulation (Daily Defence Junior) containing S. salivarius K12 • 2. Galactose 0.5% w/w was added to the commercial powder and mixed thoroughly to achieve a uniform mixture. • 3. Raffinose 2.5% w/w was added to the commercial powder and mixed thoroughly to achieve a uniform mixture.
The following method was used to measure the inhibitory effect of S. salivarius K12 in the context of the powder formulations. Exactly 40 mL of 50° C. molten CAB agar containing 0.5% calcium carbonate (CABCa) was poured in agar plates (120×120 mm). Once the agar was set upon cooling, it was split in the middle and half of the agar gel was removed. The other half was left on the plate as Blank agar marked as side “A”. Approximately, 0.8 g of each combination (DDJ powder with (1) galactose, (2) raffinose or (3) combination of raffinose and galactose) was mixed with 1 mL of sterile distilled water and vortexed to produce a homogeneous suspension. […] The pH of the producer side was measured and adjusted to 6.5-7.5 by soaking into the agar a solution of 0.5 M sodium carbonate pH 11. […] The zone of inhibition of each indicator strain was measured (in mm) using a ruler. Results were also read using a macroscope to establish presence of small colonies or complete inhibition zones.

Test [2] deals with salQ. Put plainly: qPCR relative gene expression in K12 grown on CABCa agar. Type of test: cell-based, S. salivarius K12. Here is the method:
(§1) Method: CABCa agar plates were prepared either with or without 2.5% w/w raffinose, 0.5% w/w galactose, combined 2.5% w/w raffinose and 0.5% w/w galactose, 0.5% w/w glucose or 2.5% w/w glucose by the addition of 0.5% (w/v) calcium carbonate to solid CAB agar in bottles and then melted by autoclaving at 110° C. for 10 mins. Once cooled, filter sterilised solutions of the saccharides or distilled water were added and mixed and then 20 ml pipetted into petri dishes.
(§2) A S. salivarius K12 raw ingredient suspension was prepared in PBS containing approx. 1×10^8cfu/ml. […] of this suspension was spread evenly onto control and test agar plates. Plates were incubated at 37° C. with 5% CO2 for approx, 19 hrs.
(§3) Bacterial growth from each plate was collected using a sterile cotton swab and resuspended into 1 ml PBS in a screw capped tube. The bacterial cells were then pelleted by centrifugation at 13,000 rpm for 1 minute at 4° C. The supernatant was removed, and the cell pellet was resuspended in 1 ml of TRIzol reagent. The bacterial cell suspension was transferred into a 2 ml screw-capped tube containing 0.1 mm Zirconia/silicon beads. These tubes were then vortexed for 5 minutes at the highest speed to bead beat the bacterial cells to lyse them. The tubes were placed on ice for 1 minute and then re-bead beated again on the vortex for 5 minutes. The tubes were then frozen at −20° C.
(§4) The cDNA samples from K12 raw ingredient grown on the CABCa control plates and CABCa supplemented with the various saccharides were then analysed by qPCR for the levels of gene expression of the following genes: salA, salB, salQ and ureC.
(§5) 10 μl qPCR reactions were prepared containing 2 μl of cDNA, 5 μl SYBR green master mix, 0.5 μl forward primer, 0.5 μl reverse primer and nuclease free water up to 10 μl. The dilution of cDNA in each qPCR was optimised with each primer set.
(§6) qPCR method consisted of the following cycles: Hold Stage: 2 mins at 50° C. followed by 10 mins at 95° C.; PCR Stage: 15 secs at 95° C. followed by 1 min at 60° C.; Melt Curve Stage: 15 secs at 95° C. followed by 1 min at 60° C. followed by 15 secs at 95° C.
(§7) To analyse the relative expression levels the 2^−ΔΔCt method was used to determine the relative fold gene expression level comparing the different sugars to a CABCa plate control. The reference gene used for this analysis was gyrA.

For test [3], the system named is ureC. The description is as above. The test is classed as cell-based, S. salivarius K12. Here is the method: as §1, §2, §3, §4, §5, §6, §7
For test [4], the system named is salA. Described as above. The test is classed as cell-based, S. salivarius K12. Here is the method: as §1, §2, §3, §4, §5, §6, §7
In test [5] the test system is indicator bacterial test strains. As to the kind of experiment: Inhibitory activity of freeze dried raw ingredient powder, M18. The test is classed as cell-based. The note with it: galactose 0.5% w/w; raffinose 2.5% w/w; or combination. Here is the method: Method: The amount of raffinose and galactose used was calculated based on the volume of the area of the producer streak, (which was calculated to be 4.25 g) to allow for the absorption of the saccharides into the agar. Based on this, amount of 0.021 g (i.e. 0.5% w/w galactose of 4.25 g agar volume) of galactose, 0.11 g (i.e 2.5% w/w) of raffinose and the combination of galactose (0.5% w/w) and raffinose (2.5% w/w) (0.13 g total) were weighed into sterile containers. K12 and/or M18 raw ingredient were suspended and diluted with sterile distilled water to a concentration of 1-2×10^6 cfu/100 μl. Then, […] of K12 only, M18 only, and K12±M18 suspensions were spread as a 1 cm streak down the middle of a CABCa agar plate using a sterile spreader. […] Bacterial growth was then removed using a microscope slide, and the pH of the agar in the producer streak area was measured and adjusted to pH 6.5-7.5 using 0.5M sodium carbonate (pH 11) before surface sterilizing the plates with chloroform vapour. […] Zones of inhibition for each test organism were then measured in mm using a ruler. The amount of raffinose and galactose to be used was calculated based on the volume of the area of the producer streak, (which was calculated to be 4.25 g) to allow for absorption into the agar.

Test [6] relates to M. catarrhalis TW2. As to the kind of experiment: Dose response deferred antagonism assay, producer M18. Type of test: cell-based.

Molecules are shown by their SMILES.

For the compound `O=C[C@H](O)[C@@H](O)[C@@H](O)[C@H](O)CO` [Galactose, D-galactose], in test [1], the “inhibitory activity of S. salivarius K12 in commercial powder vs control” value is on record as “increased”. Also, in test [2] (0.5% w/w sugar in CABCa agar), the “salQ upregulated relative to a no sugar control” value came to 205 fold. Moreover, the “upregulation in urease (ureC) expression” value in test [3] (0.5% w/w sugar in CABCa agar) turned out to be 224 fold. The “increase in gene expression of salA relative to no sugar control” value in test [4] (0.5% w/w sugar in CABCa agar) is listed as about 12000 fold. Moreover, the “inhibitory activity of freeze-dried raw ingredient powder of M18” value in test [5] is reported as “induced the inhibitory activity”. The figures for the “increase in zone of inhibition M. catarrhalis TW2” value in test [6] (1.0% (w/v) galactose) and in test [6] (1.5% (w/v) galactose) were 13 mm and 23 mm, respectively.
Regarding `OC[C@H]1O[C@H](OC[C@H]2O[C@H](O[C@]3(CO)O[C@H](CO)[C@@H](O)[C@@H]3O)[C@H](O)[C@@H](O)[C@@H]2O)[C@H](O)[C@@H](O)[C@H]1O` [Raffinose, D-(+) Raffinose pentahydrate], the “inhibitory activity of S. salivarius K12 in commercial powder vs control” value in test [1] was “increased”. The “salQ upregulated relative to a no sugar control” value in test [2] (2.5% w/w sugar in CABCa agar) stood at 93 fold. Besides, the “upregulation in urease (ureC) expression” value in test [3] (2.5% w/w sugar in CABCa agar) is 234 fold. In addition, the “increase in gene expression of salA relative to no sugar control” value in test [4] (2.5% w/w sugar in CABCa agar) is given as about 5000 fold. In addition, the “inhibitory activity of freeze-dried raw ingredient powder of M18” value in test [5] is given as “induced the inhibitory activity”. Moreover, the “change in zone of inhibition size M. catarrhalis TW2” value in test [6] (1.5% (w/v) raffinose) is recorded as 31 mm.

These data come from patent publication US20240390434A1, “PROBIOTIC ENHANCERS AND USES THEREOF” (Blis Technologies Limited, priority 2021, published 2024).
